Key:
[1] = tested on: durch Elektroschock ausgelöste Konvulsionen; experiment: Protection against electroshock-induced convulsions, rat; format: in vivo, Ratte; settings: po, read-out: effektive Dosis ED50
Procedure: (§1) Die neuen Verbindungen besitzen wertvolle pharmakologische Eigenschaften, insbesondere eine ausgeprägte antikonvulsive Wirksamkeit, die sich beispielsweise an der Maus anhand eines deutlichen Metrazol-Antagonismus im Dosisbereicn von etwa 30 bis 300 mg/kg p.o. sowie an Maus und Ratte anhand einer ausgeprägten Schutzwirkung gegen durch Elektroschock ausgelöste Konvulsionen im Dosisbereich von etwa 1 bis etwa 50, in den meisten Fällen von etwa 1 bis etwa 25 mg/kg p.o. zeigen lässt. In diesem Modell wurden beispielsweise die folgenden Werte für die effektive Dosis ED50 in mg/kg p.o. erhalten (1 h Vorapplikation): • 1-(2,6-Difluorbenzyl)-1 H-1,2,3-triazof-4-carboxamid: 17 (Maus bzw. 8 (Ratte); • 1-(o-Fluorbenzyl)-1H-1,2,34dazol-4-carboxamid: 17 (Maus, Ratte); • 1-(2,6-Difluorbenzyl)-1 H-1,2,3-triazol-4,5-dicarboxamid: 4 (Maus, Ratte); • 1-(6-Chlor-2-fluor-phenyl)-1 H-1,2,3-triazol-4,5-dicarboxamid: 7 (Maus) bzw. 10 (Ratte), • 1-(o-Fluorphenyl)-1H-1,2,3-triazof-4,5-dicarboxamid: 6 (Maus) bzw. 10 (Ratte); • 1-(6-Chlor-2-fluar-phenyl)-1H-1,2,3-triazol-4-carboxamid: 11 (Maus); 1-(2,5-Difluorbenzyl)-1H-1,2,3-triazol-4,5-dicarboxamid: 6 (Maus).
(§2) Die erfindungsgemäss bereitgestellten fluorierten 1-(a-Phenylalkyl)-1H-1,2,3-triazolverbindungen der Formel (I) weisen ihren als antikonvulsiv wirksam bekannten Chloranalogen gegenüber den Vorteil einer verbesserten Wirksamkeit auf. So ergaben sich in obigem Modell z.B. folgende Ed50-Werte: • 1-(o-Chlorbenzyl)-1 H-1,2,3-triazol-4-carboxamid: 26 (Maus) bzw. 25 (Ratte) und • 1-(o-Chlorbenzyl)-1 H-1,2,3-triazol-4,5-dicarboxamid: 40 (Maus) bzw. 43 (Ratte).

[2] = tested on: durch Elektroschock ausgelöste Konvulsionen; experiment: Protection against electroshock-induced convulsions, mouse; format: in vivo, Maus; settings: po, read-out: effektive Dosis ED50
Procedure: as §1, §2

[3] = Ratte, electroshock, p.o., 1 h Vorapplikation
[4] = Maus, electroshock, p.o., 1 h Vorapplikation

SMILES: NC(=O)c1nnn(Cc2c(F)cccc2Cl)c1C(N)=O [1-(6-Chlor-2-fluor-benzyl)-1 H-1,2,3-triazol-4,5-dicarboxamid]
- ED50 [1, 3]: 10 mg/kg
- ED50 [2, 4]: 7 mg/kg

SMILES: NC(=O)c1nnn(Cc2ccccc2F)c1C(N)=O [1-(o-Fluorbenzyl)-1 H-1,2,3,-triazol-4,5-dicarboxamid]
- ED50 [1, 3]: 10 mg/kg
- ED50 [2, 4]: 6 mg/kg

SMILES: NC(=O)c1cn(Cc2ccccc2F)nn1 [1-(o-Fluorbenzyl)-1 H-1,2,3-triazol-4-carboxamid]
- ED50 ([1]; 1 h): 17 mg/kg
- ED50 ([2]; 1 h): 17 mg/kg

SMILES: NC(=O)c1cn(Cc2ccccc2Cl)nn1 [1-(o-Chlorbenzyl)-1 H-1,2,3-triazol-4-carboxamid, reference compound]
- ED50 ([1]; 1 h): 25 mg/kg
- ED50 ([2]; 1 h): 26 mg/kg

SMILES: NC(=O)c1cn(Cc2c(F)cccc2F)nn1 [1-(2,6-Difluorbenzyl)-1 H-1,2,3-triazol-4-carboxamid]
- ED50 [1, 3]: 8 mg/kg
- ED50 [2, 4]: 17 mg/kg

SMILES: NC(=O)c1nnn(Cc2ccccc2Cl)c1C(N)=O [1-(o-Chlorbenzyl)-1 H-1,2,3-triazol-4,5-dicarboxamid, reference compound]
- ED50 [1, 3]: 43 mg/kg
- ED50 [2, 4]: 40 mg/kg

SMILES: NC(=O)c1nnn(Cc2cc(F)ccc2F)c1C(N)=O [1-(2,5-Difluorbenzyl)-1H-1,2,3-triazol-4,5-dicarboxamid]
- ED50 [2, 4]: 6 mg/kg

SMILES: NC(=O)c1nnn(Cc2c(F)cccc2F)c1C(N)=O [1-(2,6-Difluorbenzyl)-1H-1,2,3-triazol-4,5-dicarboxamid]
- ED50 [1, 3]: 4 mg/kg
- ED50 [2, 4]: 4 mg/kg

SMILES: NC(=O)c1cn(Cc2c(F)cccc2Cl)nn1 [1-(6-Chlor-2-fluor-benzyl)-1H-1,2,3-triazol-4-carboxamid]
- ED50 ([2]; 1 h): 11 mg/kg

Source: EP0199262A2, “Fluorinated benzyl triazole compounds” (CIBA-GEIGY AG, priority 1985, dated 1986)
